# Experimental data from patent publication US20190274974A1, “Treatment of Pain Associated with Trigeminal Neuralgia” (priority 2011, published 2019).
# Entries after “also recorded” stand apart in the source; their conditions may differ.
# Tests used:
# CCI-SN rats = assay type: in vivo, rat
# Protocol: Rats are anaesthetized with sodium pentobarbital (50 mg/kg i.p.). Unilateral CCI-SN is performed under direct visual control using a Zeiss microscope (10-25×) essentially as described by Bennett and Xie (G. J. Bennett et al., Pain, 33 (1988) 87-107).
# Mechanical sensitivity is determined with a graded series of von Frey filaments (Bioseb, Bordeaux, France; bending force: 0.07-60.0 g). The stimuli are applied within the SN territory (midplantar surface of the left hindpaw) three times at the nerve-injured side (ipsilateral, left) and then at the contralateral side for a total of 6 applications of each filament per rat, always beginning with the filament producing the lowest force. The von Frey filaments are applied at least 3 seconds after the rats returned to their initial resting state. For each session, the complete series of von Frey filaments is tested in increasing force order. The minimal force filament causing a hindpaw withdrawal response allows determination of the mechanical response threshold. The 60 g filament is the cut-off threshold.
# For studying the effects of acute treatment with tapentadol in CCI-SN rats, tapentadol (1, 3 and 10 mg/kg i.p.) or its vehicle (0.9% NaCl i. p.) was injected acutely 14 days after surgery. Sham-operated rats were treated in parallel. Pressure threshold values to trigger nocifensive responses to von Frey filaments application onto the plantar surface of ipsilateral hindpaw were determined at various times after acute injection of tapentadol or saline. Cut-off was fixed at 60 g pressure.
# For studying the effects of subchronic treatment with tapentadol in CCI-SN rats, starting on day 16 (Time=D) after surgery, they received i.p. injections of tapentadol (10 mg/kg, twice daily, at 10:00 AM and 6:00 PM) or saline (at the same day times as the drug) for four days. On the following day (day 20 after surgery), both tapentadol- and saline-pretreated CCI-SN rats were i.p. injected with Tapentadol (10 mg/kg; Time=0) and then subjected to von Frey filaments'test applied to ipsilateral hindpaw for determination of pressure threshold values at various times thereafter.
# In a second part of this study (B), unilateral chronic constriction injury to the sciatic nerve was performed two weeks before acute treatment with reboxetine (10 mg/kg i.p.), tapentadol (10 mg/kg i.p.) or saline (0.5 ml i.p./rat). Pressure threshold values were then determined at various times using von Frey filaments test applied to ipsilateral hindpaw.
# Morphine (1, 3 and 10 mg/kg s.c.) or its vehicle (0.9% NaCl) was injected acutely 14 days after CCI-SN surgery. Sham-operated rats were treated in parallel. Pressure threshold values to trigger nocifensive responses to von Frey filaments application onto the plantar surface of ipsilateral hindpaw were determined at various times after acute injection of morphine or saline.
# 14 days after CCI-SN surgery, rats were injected with reboxetine (10 mg/kg i.p.) or its vehicle (0.9% NaCl) followed, 15 min later, by morphine (1 mg/kg s.c.) or its vehicle (0.9% NaCl) and subjected to von Frey filament tests for the following 4 hours. Sham-operated rats were treated in parallel.
# The results are depicted in FIG. 11.
# [1] = system: mRNA encoding ATF3, IL-6, BDNF and iNOS; test: Real-time qRT-PCR of mRNA levels in ganglia and central tissues of CCI-SN rats; assay type: in vivo, rat; settings: subchronic 10 mg/kg i.p. twice daily; ipsilateral DRG and dorsal quadrant of lumbar spinal cord; day 20
# Protocol: Real-time qRT-PCR determinations were made on the 20th day after CCI-SN or sham operation. Saline or Tapentadol was administered at days 16-20 under treatment conditions according to Example 2 (subchronic treatment conditions). Rats were decapitated 4 h after the last injection on day 20, tissues were immediately dissected in the cold (0° C.) and processed for mRNA extraction and quantification as described by Latrémolière et al. (J. Neurosci. 2008, 28, 8489-8501).
# mRNA levels are expressed with reference to transcript encoding the […] GaPDH (glyceraldehyde 3-phosphate dehydrogenase). Each bar is the mean±S.E.M. of 4-6 independent determinations.
# [2] = system: mRNA encoding ATF3, IL-6, BDNF and iNOS; test: Real-time qRT-PCR of mRNA levels in ganglia and central tissues of CCI-ION rats; assay type: in vivo, rat; settings: subchronic 10 mg/kg i.p. twice daily; ipsilateral trigeminal ganglion and spinal nucleus of the trigeminal nerve; day 20
# BDNF-induced allodynia = test: Mechanical allodynia induced by intrathecal administration of BDNF in healthy rats (von Frey filaments test); assay type: in vivo, rat
# Protocol: In a first part of this study, BDNF (0.3 ng in 25 μl of saline per rat) or saline (25 μl) was injected intrathecally in adult male rats slightly anesthetized with isoflurane (according to Mestre et al. (1994), J. Pharmacol. Toxicol. Meth., 32, 197-200), and animals were subjected to von Frey filaments test applied to hindpaws at various times thereafter.
# In a second part of this study, tapentadol (3 or 10 mg/kg i.p.) or saline was administered to rats on the 7th day (Time=0 on abscissa) after intrathecal injection of BDNF (Time=C) as described above. Pressure threshold values were determined using von Frey filaments test applied to hindpaws.
# In a first part of this study (A), reboxetine (10 mg/kg i.p.; mesylate, Ascent Scientific, Bristol, UK), tapentadol (10 mg/kg i.p.) or saline (0.5 ml i.p./rat) was injected on the 7th day after intrathecal administration of BDNF (0.3 ng in 25 μl of saline per rat). Pressure threshold values were determined at various times thereafter using von Frey filaments test applied to hindpaws.
# [3] = biological target: recombinantly produced μ-opioid receptor (Homo sapiens, UniProt P35372); settings: cited from earlier work
# [4] = human, in vivo; cited from earlier work
# Chain of recombinantly produced μ-opioid receptor (P35372 whole entry): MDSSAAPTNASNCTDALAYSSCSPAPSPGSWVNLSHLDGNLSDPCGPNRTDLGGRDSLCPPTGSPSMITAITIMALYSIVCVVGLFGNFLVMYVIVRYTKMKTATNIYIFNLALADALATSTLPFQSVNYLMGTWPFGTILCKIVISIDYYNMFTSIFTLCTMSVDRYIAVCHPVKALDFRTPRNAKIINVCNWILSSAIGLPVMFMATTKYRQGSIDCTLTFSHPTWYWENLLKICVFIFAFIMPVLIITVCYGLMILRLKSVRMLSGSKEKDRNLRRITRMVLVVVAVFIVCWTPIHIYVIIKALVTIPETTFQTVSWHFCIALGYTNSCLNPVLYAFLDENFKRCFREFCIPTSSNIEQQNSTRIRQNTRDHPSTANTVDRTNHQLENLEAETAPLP
structure (smiles),measurement,setting,value
"CC[C@@H](c1cccc(O)c1)[C@@H](C)CN(C)C [tapentadol, (−)-(1R,2R)-3-(3-dimethylamino-1-ethyl-2-methyl-propyl)-phenol]",increase in pressure threshold value,"CCI-SN rats; 1 mg/kg i.p., acute, first 15-30 min after injection, non significant",approximately 40%
same,effect on pressure threshold values,"CCI-SN rats; 3 mg/kg i.p., acute","increased pressure threshold values, but to a lower extent than 10 mg/kg i.p."
same,anti-allodynic effect of last administration after subchronic pretreatment (sensitization/desensitization),"CCI-SN rats; 10 mg/kg i.p. twice daily for four days or saline, then 10 mg/kg i.p. on day 20","produced the same anti-allodynic effects in saline-pretreated and tapentadol-pretreated rats; also recorded: neither in CCI-SN rats nor in those with CCI-ION, any sign of sensitization or desensitization"
same,pressure threshold values compared to healthy control values,"CCI-SN rats; 10 mg/kg i.p., acute, 15-30 min after administration",no longer differed from healthy control values
same,mechanical allodynia compared to saline-treated CCI-SN rats,"CCI-SN rats; 10 mg/kg i.p., acute, 90 min after injection",did not significantly differ from that measured in saline-treated CCI-SN rats
same,pressure threshold values after the last injection under subchronic treatment,"CCI-SN rats; 10 mg/kg i.p., first 45 min after last injection",markedly increased pressure threshold values
same,dose dependence of anti-allodynic effect,"CCI-SN rats; 1-10 mg/kg i.p. dose range, acute",clear dose-dependent anti-allodynic effect
same,"levels of mRNA encoding ATF3, IL-6, BDNF and iNOS versus saline-treated CCI-SN rats",[1],not significantly different
same,"ATF3, IL-6, BDNF and iNOS mRNA levels in CCI-ION rats",[2],no significant effects
same,time at which the maximal increase in pressure threshold was reached,BDNF-induced allodynia; 10 mg/kg i.p.,15 min
same,pressure threshold values compared to untreated healthy rats,"BDNF-induced allodynia; 10 mg/kg i.p., 15-30 min after injection",return of pressure threshold values up to levels determined in untreated healthy rats
same,"reversal of BDNF-induced allodynia, dose dependence","BDNF-induced allodynia; 3 or 10 mg/kg i.p., 7th day after intrathecal BDNF",reversed BDNF-induced allodynia in a dose-dependent manner
same,"affinity to the μ-opioid receptor, times less than that of morphine",[3],18 times
same,pain-alleviating action relative to morphine,[4],two to three times less
